# Experimental data from article PMC6804253, “Predicting and Experimentally Validating Hot-Spot Residues at Protein–Protein Interfaces” (ACS Chemical Biology, 2019).
# Where two headings read alike, the source gives them in different places. Where a SMILES comes first, the peptide text is derived from it. Where no end group is shown, it is not given here. The star is where a group is joined. 5FAM = O=C1OC2(c3ccc(O)cc3Oc3cc(O)ccc32)c2ccc(C(=O)*)cc21; AEEA = NCCOCCOCC(=O)O
# Assays:
# [1] = tested on: PPIs of the SKEMPI data set (by PDBID); assay: SKEMPI experimental ΔΔG, single mutations to alanine; assay type: binding
# [2] = tested on: PPIs of the SKEMPI data set (by PDBID); settings: Flex_ddG Ref2015, 1 REU = 1 kcal/mol assumed; cited from earlier work
# [3] = tested on: PPIs of the SKEMPI data set (by PDBID); settings: Flex_ddG Talaris2014, 1 REU = 1 kcal/mol assumed; cited from earlier work
# [4] = tested on: PPIs of the SKEMPI data set (by PDBID); settings: cited from earlier work
# [5] = target: T1, SUMO-1 (Homo sapiens, UniProt P63165); assay type: binding
# T1 construct: The pet19b His-TEV-SUMO-1 (18-97) construct was over-expressed; His-TEV (N, cleaved yes); made in house; host or cells: E. coli Rosetta 2
# T1 sequence (P63165 18-97, species assumed): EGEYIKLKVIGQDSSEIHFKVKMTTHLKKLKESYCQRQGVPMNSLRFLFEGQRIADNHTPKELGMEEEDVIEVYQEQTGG
# [6] = target: T2, SHANK-PDZ (Homo sapiens, UniProt Q9Y566); settings: for H (fitted ITC data): binding enthalpy from ITC fit; for H (fitted ITC data) / S (fitted ITC data): 20 mM Tris, 150 mM NaCl pH 7.5 at 25 °C; for S (fitted ITC data): binding entropy from ITC fit
# T2 sequence (Q9Y566 656-762): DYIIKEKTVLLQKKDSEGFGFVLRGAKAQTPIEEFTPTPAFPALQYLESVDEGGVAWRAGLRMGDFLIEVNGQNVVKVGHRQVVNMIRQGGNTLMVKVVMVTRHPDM
# [7] = class of the SKEMPI experimental ΔΔG, ref SKEMPI
# [8] = SKEMPI experimental ΔΔG of binding, single mutation to alanine, complex by PDBID, ref SKEMPI
molecule,measurement,setting,value
1A22 TA3A,sk_class,[1]; class of the SKEMPI experimental ΔΔG,Neutral (neutral (little effect) 4.184 kJ/mol < ΔΔG > −4.184 kJ/mol)
same,sk_class,[1]; class of the experimental SKEMPI ΔΔG,Neutral (neutral (little effect) 4.184 kJ/mol < ΔΔG > −4.184 kJ/mol)
same,ref2015_ddG_kJ,[2],0.0717 kcal/mol
same,rosetta_ddG_kJ,[3],-0.0406 kcal/mol
same,sk_ddG_kJ,"[4]; experimental ΔΔG of single mutation to alanine, SKEMPI database",-0.0502 kcal/mol
same,sk_ddG_kJ (SKEMPI experimental ΔΔG),"[4]; single mutation to alanine, complex given by PDBID, mutation by mut_pdb, ref SKEMPI",-0.21 kJ
CC[C@H](C)[C@H](NC(=O)[C@H](CCC(=O)O)NC(=O)[C@H](CC(N)=O)NC(=O)[C@H](CC(=O)O)NC(=O)COCCOCCNC(=O)c1ccc2c(c1)C(=O)OC21c2ccc(O)cc2Oc2cc(O)ccc21)C(=O)N[C@@H](CCC(=O)O)C(=O)N[C@H](C(=O)N[C@H](C(=O)N[C@H](C(=O)N[C@H](C(=O)N[C@@H](C)C(=O)N[C@@H](CCC(=O)O)C(=O)N[C@@H](CCCCN)C(=O)N[C@@H](CCCCN)C(N)=O)C(C)C)[C@@H](C)CC)[C@@H](C)CC)C(C)C [FAM-W2714A SIM] ({5FAM-AEEA}-DNEIEVIIVAEKK-NH2),Experimental competition (ΔΔG on mutation of the residue to alanine),[5],8.1
same,Experimental competition (ΔΔG),[5],1.94 kcal/mol
CC[C@H](C)[C@H](NC(=O)[C@H](C)NC(=O)[C@H](CCC(=O)O)NC(=O)[C@@H](NC(=O)[C@H](CCC(=O)O)NC(=O)[C@H](CC(N)=O)NC(=O)[C@H](CC(=O)O)NC(=O)COCCOCCNC(=O)c1ccc2c(c1)C(=O)OC21c2ccc(O)cc2Oc2cc(O)ccc21)[C@@H](C)CC)C(=O)N[C@H](C(=O)N[C@H](C(=O)N[C@@H](Cc1c[nH]c2ccccc12)C(=O)N[C@@H](CCC(=O)O)C(=O)N[C@@H](CCCCN)C(=O)N[C@@H](CCCCN)C(N)=O)C(C)C)[C@@H](C)CC [FAM-V2710A SIM] ({5FAM-AEEA}-DNEIEAIIVWEKK-NH2),Experimental competition (ΔΔG on mutation of the residue to alanine),[5],4.7
same,Experimental competition (ΔΔG),[5],1.12 kcal/mol
Ac-EAQTRL-NH2 [CO2H-CONH2 GKAP],"Experimental ΔΔG, direct titration",[6],2.72 kcal/mol
same,H (fitted ITC data),[6],-1.57 ± 0.18 kcal/mol
same,S (fitted ITC data),[6],11.2 cal/molK
CC[C@H](C)[C@H](NC(=O)[C@H](CCC(=O)O)NC(=O)[C@H](CC(N)=O)NC(=O)[C@H](CC(=O)O)NC(=O)COCCOCCNC(=O)c1ccc2c(c1)C(=O)OC21c2ccc(O)cc2Oc2cc(O)ccc21)C(=O)N[C@@H](CCC(=O)O)C(=O)N[C@H](C(=O)N[C@H](C(=O)N[C@@H](C)C(=O)N[C@H](C(=O)N[C@@H](Cc1c[nH]c2ccccc12)C(=O)N[C@@H](CCC(=O)O)C(=O)N[C@@H](CCCCN)C(=O)N[C@@H](CCCCN)C(N)=O)C(C)C)[C@@H](C)CC)C(C)C [FAM-I2712A SIM] ({5FAM-AEEA}-DNEIEVIAVWEKK-NH2),Experimental competition (ΔΔG on mutation of the residue to alanine),[5],5.7
same,Experimental competition (ΔΔG),[5],1.36 kcal/mol
Ac-EAQTRL [GKAP],H (fitted ITC data),[6],-6.54 ± 0.04 kcal/mol
same,S (fitted ITC data),[6],3.49 cal/molK
CC[C@H](C)[C@H](NC(=O)[C@H](C)NC(=O)[C@H](CC(N)=O)NC(=O)[C@H](CC(=O)O)NC(=O)COCCOCCNC(=O)c1ccc2c(c1)C(=O)OC21c2ccc(O)cc2Oc2cc(O)ccc21)C(=O)N[C@@H](CCC(=O)O)C(=O)N[C@H](C(=O)N[C@H](C(=O)N[C@H](C(=O)N[C@H](C(=O)N[C@@H](Cc1c[nH]c2ccccc12)C(=O)N[C@@H](CCC(=O)O)C(=O)N[C@@H](CCCCN)C(=O)N[C@@H](CCCCN)C(N)=O)C(C)C)[C@@H](C)CC)[C@@H](C)CC)C(C)C [FAM-E2707A SIM] ({5FAM-AEEA}-DNAIEVIIVWEKK-NH2),Experimental competition (ΔΔG on mutation of the residue to alanine),[5],1.7
same,Experimental competition (ΔΔG),[5],0.406 kcal/mol
"1DAN DT44A (protein, UniProt P13726 33-251, looked up, variant D44A, extracellular domain) extracellular domain: SGTTNTVAAYNLTWKSTNFKTILEWEPKPVNQVYTVQISTKSGAWKSKCFYTTDTECDLTDEIVKDVKQTYLARVFSYPAGNVESTGSAGEPLYENSPEFTPYLETNLGQPTIQSFEQVGTKVNVTVEDERTLVRRNNTFLSLRDVFGKDLIYTLYYWKSSSSGKKTAKTNTNEFLIDVDKGENYCFSVQAVIPSRTVNRKSTDSPVECMGQEKGEFRE",sk_class,[1]; [7],Positive (positive (a hot residue) ΔΔG ≥ 4.184 kJ/mol)
same,sk_ddG_kJ,[4]; [8],10.00 kJ
"1DAN DU129A (protein, UniProt P13726 33-251, looked up, variant D129A, extracellular domain) extracellular domain: SGTTNTVAAYNLTWKSTNFKTILEWEPKPVNQVYTVQISTKSGDWKSKCFYTTDTECDLTDEIVKDVKQTYLARVFSYPAGNVESTGSAGEPLYENSPEFTPYLETNLGQPTIQSFEQVGTKVNVTVEAERTLVRRNNTFLSLRDVFGKDLIYTLYYWKSSSSGKKTAKTNTNEFLIDVDKGENYCFSVQAVIPSRTVNRKSTDSPVECMGQEKGEFRE",sk_class,[1]; [7],Neutral (neutral (little effect) 4.184 kJ/mol < ΔΔG > −4.184 kJ/mol)
same,sk_ddG_kJ,[4]; [8],-0.08 kJ
"1DAN KT46A (protein, UniProt P13726 33-251, looked up, variant K46A, extracellular domain) extracellular domain: SGTTNTVAAYNLTWKSTNFKTILEWEPKPVNQVYTVQISTKSGDWASKCFYTTDTECDLTDEIVKDVKQTYLARVFSYPAGNVESTGSAGEPLYENSPEFTPYLETNLGQPTIQSFEQVGTKVNVTVEDERTLVRRNNTFLSLRDVFGKDLIYTLYYWKSSSSGKKTAKTNTNEFLIDVDKGENYCFSVQAVIPSRTVNRKSTDSPVECMGQEKGEFRE",sk_class,[1]; [7],Neutral (neutral (little effect) 4.184 kJ/mol < ΔΔG > −4.184 kJ/mol)
same,sk_ddG_kJ,[4]; [8],1.00 kJ
"1DAN RU131A (protein, UniProt P13726 33-251, looked up, variant R131A, extracellular domain) extracellular domain: SGTTNTVAAYNLTWKSTNFKTILEWEPKPVNQVYTVQISTKSGDWKSKCFYTTDTECDLTDEIVKDVKQTYLARVFSYPAGNVESTGSAGEPLYENSPEFTPYLETNLGQPTIQSFEQVGTKVNVTVEDEATLVRRNNTFLSLRDVFGKDLIYTLYYWKSSSSGKKTAKTNTNEFLIDVDKGENYCFSVQAVIPSRTVNRKSTDSPVECMGQEKGEFRE",sk_class,[1]; [7],Neutral (neutral (little effect) 4.184 kJ/mol < ΔΔG > −4.184 kJ/mol)
same,sk_ddG_kJ,[4]; [8],0.00 kJ
"1DAN KT48A (protein, UniProt P13726 33-251, looked up, variant K48A, extracellular domain) extracellular domain: SGTTNTVAAYNLTWKSTNFKTILEWEPKPVNQVYTVQISTKSGDWKSACFYTTDTECDLTDEIVKDVKQTYLARVFSYPAGNVESTGSAGEPLYENSPEFTPYLETNLGQPTIQSFEQVGTKVNVTVEDERTLVRRNNTFLSLRDVFGKDLIYTLYYWKSSSSGKKTAKTNTNEFLIDVDKGENYCFSVQAVIPSRTVNRKSTDSPVECMGQEKGEFRE",sk_class,[1]; [7],Neutral (neutral (little effect) 4.184 kJ/mol < ΔΔG > −4.184 kJ/mol)
same,sk_ddG_kJ,[4]; [8],1.76 kJ
"1DAN EU128A (protein, UniProt P13726 33-251, looked up, variant E128A, extracellular domain) extracellular domain: SGTTNTVAAYNLTWKSTNFKTILEWEPKPVNQVYTVQISTKSGDWKSKCFYTTDTECDLTDEIVKDVKQTYLARVFSYPAGNVESTGSAGEPLYENSPEFTPYLETNLGQPTIQSFEQVGTKVNVTVADERTLVRRNNTFLSLRDVFGKDLIYTLYYWKSSSSGKKTAKTNTNEFLIDVDKGENYCFSVQAVIPSRTVNRKSTDSPVECMGQEKGEFRE",sk_class,[1]; [7],Neutral (neutral (little effect) 4.184 kJ/mol < ΔΔG > −4.184 kJ/mol)
same,sk_ddG_kJ,[4]; [8],0.38 kJ
"1DAN EU99A (protein, UniProt P13726 33-251, looked up, variant E99A, extracellular domain) extracellular domain: SGTTNTVAAYNLTWKSTNFKTILEWEPKPVNQVYTVQISTKSGDWKSKCFYTTDTECDLTDEIVKDVKQTYLARVFSYPAGNVESTGSAGEPLYENSPAFTPYLETNLGQPTIQSFEQVGTKVNVTVEDERTLVRRNNTFLSLRDVFGKDLIYTLYYWKSSSSGKKTAKTNTNEFLIDVDKGENYCFSVQAVIPSRTVNRKSTDSPVECMGQEKGEFRE",sk_class,[1]; [7],Neutral (neutral (little effect) 4.184 kJ/mol < ΔΔG > −4.184 kJ/mol)
same,sk_ddG_kJ,[4]; [8],-0.75 kJ
"1DAN DT58A (protein, UniProt P13726 33-251, looked up, variant D58A, extracellular domain) extracellular domain: SGTTNTVAAYNLTWKSTNFKTILEWEPKPVNQVYTVQISTKSGDWKSKCFYTTDTECALTDEIVKDVKQTYLARVFSYPAGNVESTGSAGEPLYENSPEFTPYLETNLGQPTIQSFEQVGTKVNVTVEDERTLVRRNNTFLSLRDVFGKDLIYTLYYWKSSSSGKKTAKTNTNEFLIDVDKGENYCFSVQAVIPSRTVNRKSTDSPVECMGQEKGEFRE",sk_class,[1]; [7],Positive (positive (a hot residue) ΔΔG ≥ 4.184 kJ/mol)
same,sk_ddG_kJ,[4]; [8],8.37 kJ
"1DAN KU122A (protein, UniProt P13726 33-251, looked up, variant K122A, extracellular domain) extracellular domain: SGTTNTVAAYNLTWKSTNFKTILEWEPKPVNQVYTVQISTKSGDWKSKCFYTTDTECDLTDEIVKDVKQTYLARVFSYPAGNVESTGSAGEPLYENSPEFTPYLETNLGQPTIQSFEQVGTAVNVTVEDERTLVRRNNTFLSLRDVFGKDLIYTLYYWKSSSSGKKTAKTNTNEFLIDVDKGENYCFSVQAVIPSRTVNRKSTDSPVECMGQEKGEFRE",sk_class,[1]; [7],Neutral (neutral (little effect) 4.184 kJ/mol < ΔΔG > −4.184 kJ/mol)
same,sk_ddG_kJ,[4]; [8],-0.50 kJ
